Measured values published in article PMC10321576, “Cyclic peptides target the aromatic cage of a PHD-finger reader domain to modulate epigenetic protein function” (Chemical Science, 2023).
Peptide text beside a SMILES is read from it.

Legend:
[1] = target: T1, KDM7B PHD (Homo sapiens, UniProt Q9UPP1); experiment: BLI binding; conditions: read-out: BLI KD, KDM7B PHD-finger
T1 construct: KDM7B 1-66; made in house
T1 sequence (Q9UPP1 1-66 isoform Q9UPP1-2): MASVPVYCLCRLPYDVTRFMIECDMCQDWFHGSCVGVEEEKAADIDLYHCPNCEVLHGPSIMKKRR
Text: Figure S2. BLI for KDM7 proteins with cyclic peptides.
BLI traces for b inding to KDM7 protein domains immobilised by C-terminal His -tag on Ni -NTA
biosensors, against cyclic peptides. Response trace for each peptide concentration is represented by
a different colour, with the fitted curves overlaid in black.
concentration plotted, with 2-fold dilutions thereafter. Dual domain = PHD+JmjC. […]
against KDM7 and other protein domains. t1/2 = half life (0.693 / Koff)
(1 picture or pasted object on this page, not shown here)

[2] = target: T2, KDM7B PHD-finger (Homo sapiens, UniProt Q9UPP1); experiment: Protein NMR affinity assessment; format: binding; conditions: read-out: NMR pKD, KDM7B PHD-finger (converted)
T2 construct: KDM7B 1-66; His-tag (C); made in house
T2 sequence (Q9UPP1 1-66 isoform Q9UPP1-2): T1 sequence (Q9UPP1 1-66 isoform Q9UPP1-2)

[3] = test system: full-length KDM7B; experiment: Pull-down from transfected HEK293T nuclear lysates; format: binding; conditions: 100-fold excess competitor
Description: HEK293T cells were transiently transfected with either a full-length wild-type KDM7B, or an aromatic cage inactivating mutant KDM7B (Y14A, W29A).[20]
Capture was performed with 1 μM probe incubated in pre-cleared lysate, recovered with streptavidin-conjugated magnetic beads, then washed and eluted by heating in denaturing solution. 100-fold excess OC9 or OC9 V10A were used as competitors. […] The upper left quadrant indicates >5-fold difference in recovered protein (based on T-test difference of mean log 2 (LFQ) values) and p-value threshold <0.05.

Kd [1] [µM]	Kd [2] [µM]	SMILES	competition of OC9-Bt pull-down of KDM7B [3]
> 10	> 501	CC(C)C[C@@H]1NC(=O)[C@H](Cc2ccc(O)cc2)NC(=O)[C@H](Cc2ccc(O)cc2)NC(=O)CSC[C@@H](C(N)=O)NC(=O)[C@H]([C@@H](C)O)NC(=O)[C@H](CCCNC(=N)N)NC(=O)[C@H](Cc2ccccc2)NC(=O)[C@@H](C(C)C)NC(=O)[C@H](CO)NC(=O)[C@@H]2CCCN2C(=O)[C@H](Cc2ccc(O)cc2)NC(=O)[C@@H]2CCCN2C(=O)[C@H](Cc2c[nH]cn2)NC(=O)[C@H]([C@@H](C)O)NC1=O [OC9 V10DV] (HELM PEPTIDE1{[O=C(C[*:3])[*:2]].Y.Y.L.T.H.P.Y.P.S.[dV].F.R.T.C.[am]}$PEPTIDE1,PEPTIDE1,1:R3-15:R3$$$V2.0; C-terminus assumed)	–
–	–	CC(C)C[C@@H]1NC(=O)[C@H](Cc2ccc(O)cc2)NC(=O)[C@H](Cc2ccc(O)cc2)NC(=O)CSC[C@@H](C(N)=O)NC(=O)[C@H]([C@@H](C)O)NC(=O)[C@H](CCCNC(=N)N)NC(=O)[C@H](Cc2ccccc2)NC(=O)[C@H](C)NC(=O)[C@H](CO)NC(=O)[C@@H]2CCCN2C(=O)[C@H](Cc2ccc(O)cc2)NC(=O)[C@@H]2CCCN2C(=O)[C@H](Cc2c[nH]cn2)NC(=O)[C@H]([C@@H](C)O)NC1=O [V10A] (HELM PEPTIDE1{[O=C(C[*:3])[*:2]].Y.Y.L.T.H.P.Y.P.S.A.F.R.T.C.[am]}$PEPTIDE1,PEPTIDE1,1:R3-15:R3$$$V2.0; C-terminus assumed)	did not reduce recovery so substantially
